The values below come from US20260015315A1, “AMINO LIPID COMPOUND, PREPARATION METHOD THEREFOR, COMPOSITION THEREOF AND APPLICATION THEREOF” (SHENZHEN SHENXIN BIOTECHNOLOGY CO., LTD., priority 2022, published 2026).

One experiment concerns BALB/c mice. Nature of the experiment: In vivo delivery of lipid nanoparticle encapsulating luciferase mRNA (Fluc mRNA), IVIS imaging. The conditions noted are these: Fluc mRNA-LNP (amino lipid:DSPC:CHO-HP:PEG2000-DMG 48:10:40.5:1.5), 75 μL tail vein IV, female BALB/c mice, IVIS 6 hours after injection, whole body. The method, then:
The amino lipid compound of the present disclosure, a helper lipid, a structural lipid, and a PEG-lipid were separately dissolved in absolute ethanol to prepare respective solutions at concentrations of 20 mg/mL, 10 mg/mL, 20 mg/mL, and 25 mg/mL, respectively. The above four solutions were pipetted at a molar ratio of the amino lipid compound: DSPC:CHO-HP:PEG2000-DMG of 48:10:40.5:1.5, and mixed well to prepare an alcohol phase.
(2) Encapsulation: The water phase and the alcohol phase were injected into a microfluidic chip at a flow rate of water phase:alcohol phase=12 mL/min: 4 mL/min by using a microfluidic preparation instrument (MPE-L2), and encapsulation was carried out at a flow rate of water phase:alcohol phase=9 mL/min: 3 mL/min to obtain mRNA-encapsulating lipid nanoparticle (mRNA-LNP).
(3) Dialysis: The product of step (2) was loaded in a dialysis bag and placed in a Tris Buffer-8% sucrose solution for replacement to remove ingredients such as residual ethanol, unassembled lipids. Dialysis was conducted for 2 h with magnetic stirring at room temperature and under protection from light (dialysate was replaced every 1 hour).
(4) The product of step (3) was sterilized by passing through a 0.22 μm microporous membrane, and then packaged.
Lipid nanoparticle formulations encapsulating Flue mRNA were prepared, with a concentration of Flue mRNA of 0.2 μg/μL, a mass ratio of Flue mRNA to Lipid of 1:10, a particle size of 80-130 nm, and a encapsulation efficiency of 80% or higher.
• Animal preparation: Female BALB/c mice of 6-8 weeks old were selected and raised in an SPF grade breeding room. Animal testing was conducted in strict accordance with the guidelines of national health institutions and animal ethics requirements.
In vivo Delivery: prior to injection of the test LNP formulations, the LNP formulations were gently and repeatedly inverted to thoroughly mix the formulation samples. A corresponding amount of the formulation samples were aspirated with a 1 ml insulin syringe, and the LNP formulations were injected by tail vein injection (IV), with 3 mice in duplicate per formulation. Each mouse was injected with 75 μL of the luciferase mRNA (Flue mRNA)-encapsulating lipid nanoparticle formulation prepared in Experimental Example 1.
6 hours after injection of LNP formulations, mice were injected with 200 μL D-Luciferin luciferase developing substrate (Catalog No. 122799; Manufacturer: Perkin Elmer). After the substrate was injected, the mice were anesthetized by injection of 200 μl of 2.5% avertin, and the injection time of luciferase developing substrate was recorded.
The fluorescence expression intensity induced by the lipid nanoparticle encapsulating luciferase mRNA (Flue mRNA) with a representative amino lipid compound is shown in Table 4, with the amino lipid compound 118 as a control.
In the case of `CCCCCCC(CCCCCC)OC(=O)CCCCCCCCC(CCCCCCCCC(=O)OC(CCCCCC)CCCCCC)N(CCCN(C)C)C(=O)COCCCC` [compound 119], the “Total flux (fluorescence expression intensity)” value turned out to be 2.65E+07.
On the same count and under the same terms, under `CCCCCCC(CCCCCC)OC(=O)CCCCCCCCC(CCCCCCCCC(=O)OC(CCCCCC)CCCCCC)N(CCCN(C)C)C(=O)COCCCCC` [compound 120] stands 3.48E+07; under `CCCCCCOCC(=O)N(CCCN(C)C)C(CCCCCCCCC(=O)OC(CCCCCC)CCCCCC)CCCCCCCCC(=O)OC(CCCCCC)CCCCCC` [compound 121], 3.07E+07.
Same read-out and setting: under `CCCCCCCOCC(=O)N(CCCN(C)C)C(CCCCCCCCC(=O)OC(CCCCCC)CCCCCC)CCCCCCCCC(=O)OC(CCCCCC)CCCCCC` [compound 122] stands 3.56E+07; under `CCCCCCCCOCC(=O)N(CCCN(C)C)C(CCCCCCCCC(=O)OC(CCCCCC)CCCCCC)CCCCCCCCC(=O)OC(CCCCCC)CCCCCC` [compound 123], 5.95E+07.
The same measure, in the same setting: under `CCCCCCC(CCCCCC)OC(=O)CCCCCCCCC(CCCCCCCCC(=O)OC(CCCCCC)CCCCCC)N(CCCN(C)C)C(=O)CCOCCCC` [compound 124] stands 3.45E+07; under `CCCCCCC(CCCCCC)OC(=O)CCCCCCCCC(CCCCCCCCC(=O)OC(CCCCCC)CCCCCC)N(CCCN(C)C)C(=O)CCOCCCCC` [compound 125], 5.40E+07.
With `CCCCCCOCCC(=O)N(CCCN(C)C)C(CCCCCCCCC(=O)OC(CCCCCC)CCCCCC)CCCCCCCCC(=O)OC(CCCCCC)CCCCCC` [compound 126], the “Total flux (fluorescence expression intensity)” value came out at 5.39E+07.
On the same count and under the same terms, next, `CCCCCCCOCCC(=O)N(CCCN(C)C)C(CCCCCCCCC(=O)OC(CCCCCC)CCCCCC)CCCCCCCCC(=O)OC(CCCCCC)CCCCCC` [compound 127]: 3.56E+07.
Still for that read-out and setting: next, `CCCCCCCCOCCC(=O)N(CCCN(C)C)C(CCCCCCCCC(=O)OC(CCCCCC)CCCCCC)CCCCCCCCC(=O)OC(CCCCCC)CCCCCC` [compound 128]: 5.62E+07.

Still in this experiment, the particulars now being: Fluc mRNA-LNP, 75 μL tail vein IV, female BALB/c mice, IVIS 6 hours after injection, spleen.
As to `CCCCCCC(CCCCCC)OC(=O)CCCCCCCCC(CCCCCCCCC(=O)OC(CCCCCC)CCCCCC)N(CCCN(C)C)C(=O)COCCCC` [compound 119], the “Spleen (fluorescence expression intensity)” value is 6.80E+06.
Same read-out and setting: next, `CCCCCCC(CCCCCC)OC(=O)CCCCCCCCC(CCCCCCCCC(=O)OC(CCCCCC)CCCCCC)N(CCCN(C)C)C(=O)COCCCCC` [compound 120]: 6.46E+06; `CCCCCCOCC(=O)N(CCCN(C)C)C(CCCCCCCCC(=O)OC(CCCCCC)CCCCCC)CCCCCCCCC(=O)OC(CCCCCC)CCCCCC` [compound 121]: 7.14E+06; `CCCCCCCOCC(=O)N(CCCN(C)C)C(CCCCCCCCC(=O)OC(CCCCCC)CCCCCC)CCCCCCCCC(=O)OC(CCCCCC)CCCCCC` [compound 122]: 3.02E+06.
Still for that read-out and setting: next, `CCCCCCCCOCC(=O)N(CCCN(C)C)C(CCCCCCCCC(=O)OC(CCCCCC)CCCCCC)CCCCCCCCC(=O)OC(CCCCCC)CCCCCC` [compound 123]: 4.02E+06; `CCCCCCC(CCCCCC)OC(=O)CCCCCCCCC(CCCCCCCCC(=O)OC(CCCCCC)CCCCCC)N(CCCN(C)C)C(=O)CCOCCCC` [compound 124]: 6.18E+06; `CCCCCCC(CCCCCC)OC(=O)CCCCCCCCC(CCCCCCCCC(=O)OC(CCCCCC)CCCCCC)N(CCCN(C)C)C(=O)CCOCCCCC` [compound 125]: 2.72E+06.
Same read-out and setting: next, `CCCCCCOCCC(=O)N(CCCN(C)C)C(CCCCCCCCC(=O)OC(CCCCCC)CCCCCC)CCCCCCCCC(=O)OC(CCCCCC)CCCCCC` [compound 126]: 6.87E+06.
Consider `CCCCCCCOCCC(=O)N(CCCN(C)C)C(CCCCCCCCC(=O)OC(CCCCCC)CCCCCC)CCCCCCCCC(=O)OC(CCCCCC)CCCCCC` [compound 127], for which the “Spleen (fluorescence expression intensity)” value was 4.60E+06.
On the same count and under the same terms, next, `CCCCCCCCOCCC(=O)N(CCCN(C)C)C(CCCCCCCCC(=O)OC(CCCCCC)CCCCCC)CCCCCCCCC(=O)OC(CCCCCC)CCCCCC` [compound 128]: 3.01E+06.

Still in this experiment, the particulars now being: Fluc mRNA-LNP, tail vein IV, BALB/c mice, 6 hours.
Regarding `CCCCCCC(CCCCCC)OC(=O)CCCCCCCCC(CCCCCCCCC(=O)OC(CCCCCC)CCCCCC)N(CCCN(C)C)C(=O)COCCCC` [compound 119], the “(Spleen/Total Flux) * 100%” value is reported as 25.66%.
Still for that read-out and setting: next, `CCCCCCC(CCCCCC)OC(=O)CCCCCCCCC(CCCCCCCCC(=O)OC(CCCCCC)CCCCCC)N(CCCN(C)C)C(=O)COCCCCC` [compound 120]: 18.56%; `CCCCCCOCC(=O)N(CCCN(C)C)C(CCCCCCCCC(=O)OC(CCCCCC)CCCCCC)CCCCCCCCC(=O)OC(CCCCCC)CCCCCC` [compound 121]: 23.26%.
Regarding `CCCCCCCOCC(=O)N(CCCN(C)C)C(CCCCCCCCC(=O)OC(CCCCCC)CCCCCC)CCCCCCCCC(=O)OC(CCCCCC)CCCCCC` [compound 122], the “(Spleen/Total Flux) * 100%” value came to 8.48%.
The same measure, in the same setting: under `CCCCCCCCOCC(=O)N(CCCN(C)C)C(CCCCCCCCC(=O)OC(CCCCCC)CCCCCC)CCCCCCCCC(=O)OC(CCCCCC)CCCCCC` [compound 123] stands 6.76%.
The same measure, in the same setting: under `CCCCCCC(CCCCCC)OC(=O)CCCCCCCCC(CCCCCCCCC(=O)OC(CCCCCC)CCCCCC)N(CCCN(C)C)C(=O)CCOCCCC` [compound 124] stands 17.91%; under `CCCCCCC(CCCCCC)OC(=O)CCCCCCCCC(CCCCCCCCC(=O)OC(CCCCCC)CCCCCC)N(CCCN(C)C)C(=O)CCOCCCCC` [compound 125], 5.04%; under `CCCCCCOCCC(=O)N(CCCN(C)C)C(CCCCCCCCC(=O)OC(CCCCCC)CCCCCC)CCCCCCCCC(=O)OC(CCCCCC)CCCCCC` [compound 126], 12.75%.
With `CCCCCCCOCCC(=O)N(CCCN(C)C)C(CCCCCCCCC(=O)OC(CCCCCC)CCCCCC)CCCCCCCCC(=O)OC(CCCCCC)CCCCCC` [compound 127], the “(Spleen/Total Flux) * 100%” value was 12.92%.
Still for that read-out and setting: next, `CCCCCCCCOCCC(=O)N(CCCN(C)C)C(CCCCCCCCC(=O)OC(CCCCCC)CCCCCC)CCCCCCCCC(=O)OC(CCCCCC)CCCCCC` [compound 128]: 5.36%.

The experiment is the same for the next values; noted with them: Fluc mRNA-LNP, tail vein IV, BALB/c mice, 6 hours; relative to Compound 118.
For `CCCCCCC(CCCCCC)OC(=O)CCCCCCCCC(CCCCCCCCC(=O)OC(CCCCCC)CCCCCC)N(CCCN(C)C)C(=O)COCCCC` [compound 119], the “Multiple of spleen delivery/total delivery (Spleen/Total Flux) to Compound 118” value (shortened to “Multiple … (Spleen/Total Flux) to Compound 118”) worked out at 22.51.
Same read-out and setting: next, `CCCCCCC(CCCCCC)OC(=O)CCCCCCCCC(CCCCCCCCC(=O)OC(CCCCCC)CCCCCC)N(CCCN(C)C)C(=O)COCCCCC` [compound 120]: 16.28; `CCCCCCOCC(=O)N(CCCN(C)C)C(CCCCCCCCC(=O)OC(CCCCCC)CCCCCC)CCCCCCCCC(=O)OC(CCCCCC)CCCCCC` [compound 121]: 20.40; `CCCCCCCOCC(=O)N(CCCN(C)C)C(CCCCCCCCC(=O)OC(CCCCCC)CCCCCC)CCCCCCCCC(=O)OC(CCCCCC)CCCCCC` [compound 122]: 7.44.
On the same count and under the same terms, under `CCCCCCCCOCC(=O)N(CCCN(C)C)C(CCCCCCCCC(=O)OC(CCCCCC)CCCCCC)CCCCCCCCC(=O)OC(CCCCCC)CCCCCC` [compound 123] stands 5.93; under `CCCCCCC(CCCCCC)OC(=O)CCCCCCCCC(CCCCCCCCC(=O)OC(CCCCCC)CCCCCC)N(CCCN(C)C)C(=O)CCOCCCC` [compound 124], 15.71.
Same read-out and setting: next, `CCCCCCC(CCCCCC)OC(=O)CCCCCCCCC(CCCCCCCCC(=O)OC(CCCCCC)CCCCCC)N(CCCN(C)C)C(=O)CCOCCCCC` [compound 125]: 4.42.
`CCCCCCOCCC(=O)N(CCCN(C)C)C(CCCCCCCCC(=O)OC(CCCCCC)CCCCCC)CCCCCCCCC(=O)OC(CCCCCC)CCCCCC` [compound 126]: the “Multiple … (Spleen/Total Flux) to Compound 118” value worked out at 11.18.
For the compound `CCCCCCCOCCC(=O)N(CCCN(C)C)C(CCCCCCCCC(=O)OC(CCCCCC)CCCCCC)CCCCCCCCC(=O)OC(CCCCCC)CCCCCC` [compound 127], the “Multiple … (Spleen/Total Flux) to Compound 118” value is on record as 11.33.
Still for that read-out and setting: under `CCCCCCCCOCCC(=O)N(CCCN(C)C)C(CCCCCCCCC(=O)OC(CCCCCC)CCCCCC)CCCCCCCCC(=O)OC(CCCCCC)CCCCCC` [compound 128] stands 4.70.
